Data: patent US12303505B2, “Tumor-treating pharmaceutical composition” (Eisai R&D Management Co., Ltd., priority 2017, dated 2025)
Counter-ions that a name gives are not always drawn.

Assays:
Format in all cases: in vivo
[1] = tested on: transgenic mouse (MMTV-Wnt-1) spontaneous breast cancer; experiment: Antitumor effect in serial transplantation model of transgenic mouse (MMTV-Wnt-1) spontaneous breast cancer, C57BL/6J mice
Procedure: Spontaneous breast cancer of a transgenic mouse (MMTV-Wnt-1, The Jackson Laboratory) caused to locally express Wnt-1 in mammary gland epithelial cells was collected, transplanted in a mouse of background strain (C57BL/6J, Charles River Laboratories Japan, Inc.) by using a trocar, and passaged. The tumor thus transplanted and passaged was excised when becoming approximately 1.5 g, and prepared into approximately 30 mg of a fragment, which was subcutaneously transplanted to the sides of the bodies of five mice (C57BL/6J) each of a control group, an E7386 12.5, 25 or 50 mg/kg alone administration group, a lenvatinib mesylate 10 mg/kg alone administration group, and a combined administration group of 12.5, 25 or 50 mg/kg E7386 and 10 mg/kg lenvatinib mesylate. After confirmation of engraftment of the tumor, E7386 (12.5, 25 or 50 mg/kg, b.d.s., 14 days, oral administration) and lenvatinib mesylate (10 mg/kg, q.d., 14 days, oral administration) were administered alone or in combination to the alone administration group or the combined administration group. For the administration, E7386 was dissolved in 0.1 mol/L hydrochloric acid, and lenvatinib mesylate was dissolved in 3 mmol/L hydrochloric acid. 0.1 mol/L hydrochloric acid (b.d.s., 14 days) was administered to the control group.
When the start day of administration was defined as day 1, the major axis and minor axis of tumor developed in each mouse were then measured at day 4, day 8, day 11, and day 15 by using Digimatic Caliper (Mitutoyo Corp.).
The tumor volume and the relative tumor volume (RTV) were calculated according to the following expressions. Tumor volume (mm^3)=Tumor major axis (mm)×Tumor minor axis^2 (mm)/2 Relative tumor volume (RTV)=Tumor volume at the measurement day/Tumor volume at the start day of administration

[2] = tested on: Mouse breast cancer 4T1 cells; experiment: Antitumor effect in mouse breast cancer 4T1 orthotopic transplantation model
Procedure: Mouse breast cancer 4T1 cells (ATCC) were cultured by using RPMI1640 medium (Sigma-Aldrich Co. LLC) containing 10% FBS in a 5% CO2 incubator under conditions of 37° C. When the cells became an approximately 80% confluent state, the cells were recovered by using trypsin-EDTA. A suspension was prepared by adding Hank's balanced salt solution so as to be 1.0×10^7 cells/mL. 0.1 mL of the obtained cell suspension was transplanted to the right third mammary gland fat pads of five mice ([…], Charles River Laboratories Japan, Inc.) each of a control group, an E7386 25 mg/kg alone administration group, a lenvatinib mesylate 10 mg/kg alone administration group, and a combined administration group of 25 mg/kg E7386 and 10 mg/kg lenvatinib mesylate. From 9 days after the transplantation, E7386 (25 mg/kg, b.d.s., 14 days, oral administration) and lenvatinib mesylate (10 mg/kg, q.d., 14 days, oral administration) were administered alone or in combination to the alone administration group or the combined administration group. For the administration, E7386 was dissolved in 0.1 mol/L hydrochloric acid, and lenvatinib mesylate was dissolved in 3 mmol/L hydrochloric acid. Any drug was not administered to the control group.
When the start day of administration was defined as day 1, the major axis and minor axis of tumor developed in each mouse were then measured at day 3, day 6, day 9, and day 14 by using Digimatic Caliper (Mitutoyo Corp.).
(§1) The tumor volume and the relative tumor volume (RTV) were calculated according to the following expressions. Tumor volume (mm^3)=Tumor major axis (mm)×Tumor minor axis^2 (mm^2)/2 Relative tumor volume (RTV)=Tumor volume at the measurement day/Tumor volume at the start day of administration

[3] = tested on: Human hepatocellular carcinoma line HepG2 cells; experiment: Antitumor effect in human hepatocellular carcinoma line HepG2 subcutaneous transplantation model, nude mice
Procedure: Human hepatocellular carcinoma line HepG2 cells (JCRB Cell Bank) were cultured by using DMEM-Low glucose medium (Wako Pure Chemical Industries, Ltd.) containing 10% FBS in a 5% CO2 incubator under conditions of 37° C. When the cells became an approximately 80% confluent state, the cells were recovered by using trypsin-EDTA. A suspension was prepared by adding phosphate-buffered saline containing 50% Matrigel to the cells so as to be 10.0×10^7 cells/mL. 0.1 mL of the obtained cell suspension was subcutaneously transplanted to the sides of the bodies of five nude mice (CAnN.Cg-Foxn1^nu/CrlCrlj, Charles River Laboratories Japan, Inc.) each of a control group, an E7386 50 mg/kg alone administration group, a lenvatinib mesylate 10 mg/kg alone administration group, and a combined administration group of 50 mg/kg E7386 and 10 mg/kg lenvatinib mesylate. From 12 days after the transplantation, E7386 (50 mg/kg, b.d.s., 14 days, oral administration) and lenvatinib mesylate (10 mg/kg, q.d., 14 days, oral administration) were administered alone or in combination to the alone administration group or the combined administration group. For the administration, E7386 was dissolved in 0.1 mol/L hydrochloric acid, and lenvatinib mesylate was dissolved in 3 mmol/L hydrochloric acid. Any drug was not administered to the control group.
When the start day of administration was defined as day 1, the major axis and minor axis of tumor developed in each mouse were then measured at day 4, day 7, day 9, day 13, and day 15 by using Digimatic Caliper (Mitutoyo Corp.).
as §1

[4] = Day 4, E7386 50 mg/kg b.d.s. oral alone
[5] = Day 15, E7386 50 mg/kg b.d.s. oral alone
[6] = Day 4, lenvatinib mesylate 10 mg/kg q.d. oral alone
[7] = Day 15, lenvatinib mesylate 10 mg/kg q.d. oral alone
[8] = Day 9, lenvatinib mesylate 10 mg/kg q.d. oral alone

C=CCN1CC(=O)N2[C@@H](Cc3ccc(O)cc3F)C(=O)N(Cc3cccc(N4CC(N5CCN(CC)CC5)C4)n3)C[C@@H]2N1C(=O)NCc1ccccc1 [E7386, (6S,9aS)—N-Benzyl-8-({6-[3-(4-ethylpiperazin-1-yl)azetidin-1-yl]pyridin-2-yl}methyl)-6-(2-fluoro-4-hydroxybenzyl)-4,7-dioxo-2-(prop-2-en-1-yl)hexahydro-2H-pyrazino[2,1-c][1,2,4]triazine-1(6H)-carboxamide]
Relative tumor volume (RTV), mean±SD ([1]; Day 4, E7386 12.5 mg/kg b.d.s. oral alone): 1.34 ± 0.25
Relative tumor volume (RTV), mean±SD ([1]; Day 4, E7386 25 mg/kg b.d.s. oral alone): 1.26 ± 0.28
Relative tumor volume (RTV), mean±SD [1, 4]: 0.93 ± 0.23
Relative tumor volume (RTV), mean±SD ([1]; Day 8, E7386 12.5 mg/kg b.d.s. oral alone): 1.20 ± 0.40
Relative tumor volume (RTV), mean±SD ([1]; Day 8, E7386 25 mg/kg b.d.s. oral alone): 1.56 ± 0.48
Relative tumor volume (RTV), mean±SD ([1]; Day 8, E7386 50 mg/kg b.d.s. oral alone): 1.05 ± 0.26
Relative tumor volume (RTV), mean±SD ([1]; Day 11, E7386 12.5 mg/kg b.d.s. oral alone): 1.70 ± 0.67
Relative tumor volume (RTV), mean±SD ([1]; Day 11, E7386 25 mg/kg b.d.s. oral alone): 2.40 ± 0.22
Relative tumor volume (RTV), mean±SD ([1]; Day 11, E7386 50 mg/kg b.d.s. oral alone): 1.34 ± 0.35
Relative tumor volume (RTV), mean±SD ([1]; Day 15, E7386 12.5 mg/kg b.d.s. oral alone): 2.12 ± 0.65
Relative tumor volume (RTV), mean±SD ([1]; Day 15, E7386 25 mg/kg b.d.s. oral alone): 3.69 ± 0.92
Relative tumor volume (RTV), mean±SD [1, 5]: 1.59 ± 1.03
Relative tumor volume (RTV), mean±SD ([2]; Day 3, E7386 25 mg/kg b.d.s. oral alone): 1.59 ± 0.38
Relative tumor volume (RTV), mean±SD ([2]; Day 6, E7386 25 mg/kg b.d.s. oral alone): 1.75 ± 0.42
Relative tumor volume (RTV), mean±SD ([2]; Day 9, E7386 25 mg/kg b.d.s. oral alone): 2.17 ± 0.76
Relative tumor volume (RTV), mean±SD ([2]; Day 14, E7386 25 mg/kg b.d.s. oral alone): 2.32 ± 0.68
Relative tumor volume (RTV), mean±SD [3, 4]: 1.45 ± 0.23
Relative tumor volume (RTV), mean±SD ([3]; Day 7, E7386 50 mg/kg b.d.s. oral alone): 3.05 ± 0.57
Relative tumor volume (RTV), mean±SD ([3]; Day 9, E7386 50 mg/kg b.d.s. oral alone): 3.96 ± 0.53
Relative tumor volume (RTV), mean±SD ([3]; Day 13, E7386 50 mg/kg b.d.s. oral alone): 5.60 ± 1.02
Relative tumor volume (RTV), mean±SD [3, 5]: 6.23 ± 1.39

COc1cc2nccc(Oc3ccc(NC(=O)NC4CC4)c(Cl)c3)c2cc1C(N)=O [Lenvatinib mesylate, 4-(3-chloro-4-(cyclopropylaminocarbonyl)aminophenoxy)-7-methoxy-6-quinolinecarboxamide, reference compound]
Relative tumor volume (RTV), mean±SD [1, 6]: 1.03 ± 0.13
Relative tumor volume (RTV), mean±SD ([1]; Day 8, lenvatinib mesylate 10 mg/kg q.d. oral alone): 0.87 ± 0.13
Relative tumor volume (RTV), mean±SD ([1]; Day 11, lenvatinib mesylate 10 mg/kg q.d. oral alone): 0.98 ± 0.21
Relative tumor volume (RTV), mean±SD [1, 7]: 1.05 ± 0.25
Relative tumor volume (RTV), mean±SD ([2]; Day 3, lenvatinib mesylate 10 mg/kg q.d. oral alone): 1.36 ± 0.28
Relative tumor volume (RTV), mean±SD ([2]; Day 6, lenvatinib mesylate 10 mg/kg q.d. oral alone): 1.46 ± 0.28
Relative tumor volume (RTV), mean±SD [2, 8]: 1.75 ± 0.41
Relative tumor volume (RTV), mean±SD ([2]; Day 14, lenvatinib mesylate 10 mg/kg q.d. oral alone): 1.99 ± 0.26
Relative tumor volume (RTV), mean±SD [3, 6]: 1.10 ± 0.08
Relative tumor volume (RTV), mean±SD ([3]; Day 7, lenvatinib mesylate 10 mg/kg q.d. oral alone): 1.60 ± 0.94
Relative tumor volume (RTV), mean±SD [3, 8]: 2.07 ± 0.88
Relative tumor volume (RTV), mean±SD ([3]; Day 13, lenvatinib mesylate 10 mg/kg q.d. oral alone): 2.70 ± 1.47
Relative tumor volume (RTV), mean±SD [3, 7]: 3.43 ± 1.46
